Reference: patent publication US20070244138A1, “Mercaptoimidazoles as Ccr2 Receptor Antagonists” (JANSSEN PHARMACEUTICA N.V., priority 2004, published 2007)
pIC50, pKi: −log10 of the molar value. Each block holds one compound with its values, some of them ahead of it.

Legend:
[1] = biological target: T1, CCR2 receptor (Homo sapiens, UniProt P41597); test: Inhibition of MCP-1 induced Ca-flux in human THP-1 cells; assay type: cell-based; conditions: -log IC50 (molar), inhibition of specific MCP-1 induced Ca2+ flux, 10^-7 M hMCP-1, 20 min pre-incubation, FLIPR
T1 construct: host or cells: THP-1 (human monocytic cell line)
T1 sequence (P41597 1-360 isoform P41597-2): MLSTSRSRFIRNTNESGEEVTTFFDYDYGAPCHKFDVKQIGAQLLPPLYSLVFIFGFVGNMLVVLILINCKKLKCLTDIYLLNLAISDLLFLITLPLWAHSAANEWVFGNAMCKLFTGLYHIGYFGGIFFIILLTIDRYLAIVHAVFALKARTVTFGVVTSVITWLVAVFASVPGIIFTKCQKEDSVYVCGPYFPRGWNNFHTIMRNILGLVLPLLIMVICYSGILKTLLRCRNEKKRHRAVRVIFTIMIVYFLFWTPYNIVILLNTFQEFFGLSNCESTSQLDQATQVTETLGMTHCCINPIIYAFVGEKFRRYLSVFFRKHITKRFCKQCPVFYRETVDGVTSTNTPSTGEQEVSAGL
Protocol: D. Pharmacological Example Inhibition of MCP-1 Induced Ca-Flux in Human THP-1 Cells
MCP-1 binding to the CCR2 receptor induces a rapid and transient intracellular release of Ca^2+ (secondary messenger) in several cell lines (Charo et al, PNAS 1994). Free Ca^2+ levels can be measured using a Ca^2+ sensitive dye. When the CCR2 receptor is blocked with a CCR2 receptor antagonist, the MCP-1 induced release of Ca^2+ is inhibited.
Human THP-1 cells (monocytic cell line, ATCC TIB-202) were cultured in RPMI 1640 medium supplemented with 10% fetal calf serum (FCS), 1% L-Glutamine, penicillin (50 U/ml) and streptomycin (50 μg/ml) (all GIBCO BRL, Gent). After centrifugation, cells were loaded for 30 minutes with the Ca^2+ sensitive fluorescent dye Fluo-3 AM (Molecular Probes, Leiden, Netherlands) (2 million cells/ml in RPMI medium containing 4 μM Fluo-3 AM, 20 mM HEPES, 0.1% Bovine Serum Albumin (BSA) and 5 mM probenecid). Excess dye was removed by 3-fold washing with buffer (5 mM HEPES, 140 mM NaCl, 1 mM MgCl2, 5 mN KCl, 10 mM glucose, 2.5 mM probenecid, 1.25 mM CaCl2, 0.1% BSA; all further incubations were done in this buffer). Cells were plated at a density of 150 000 cells/well in dark-wall 96-well plates (Costar, Cambridge, Mass.) and sedimented by centrifugation (1 minute). The cells were pre-incubated for 20 minutes with test compound Then, 10^−7 M hMCP-1 (Bachem, Bubendorf, Switserland) was added. Changes in intracellular free Ca^2+ concentration were measured using the Fluorescent Imaging Plate Reader (FLIPR, Molecular Devices, Munchen, Germany). Fluorescence was recorded every second from 10 seconds before the addition of the MCP-1 till 2 minutes after the addition (first minute: 60 records with 1 second intervals, second minute 20 records with 3 second intervals). The maximal fluorescence obtained during this time frame was used for further calculations.
Table 4 reports pIC50 values obtained in the above-described test for compounds of formula (I). pIC50 defines −log IC5o wherein IC50 is the molar concentration of the test compound which inhibits 50% of specific MCP-1 induced Ca^2+ flux.

[2] = biological target: T2, CCR2B (Homo sapiens, UniProt P41597); test: 125I-MCP-1 radioligand binding assay, membranes from CCR2B-transfected CHO cells; conditions: competition with 0.15 nM 125I-MCP-1, 90 minutes at 25° C.; Cheng-Prusoff
T2 construct: expressed in transfected cells; host or cells: CHO cells (membrane preparation)
T2 sequence (P41597 1-360 isoform P41597-2): T1 sequence (P41597 1-360 isoform P41597-2)
Protocol: Radioligand Binding Assay.
^125I-MCP binding assays performed in 96-well plates with 40 μg of protein per well. Compounds were dissolved and diluted in DMSO to 100× dilutions. A 10× concentration range of compounds was prepared in binding buffer (10% DSMO). Competition binding assay contained the following components in a total volume of 250 μl of the appropriate compound dilution (final concentration of 1% DMSO), 200 μl membranes from CCR2B-transfected CHO cells dissolved in binding buffer and 25 μl ^125I-MCP-1(Bolton and Hunter labeled, Amersham, specific activity=2000 Ci/mmol, 0.15 nM final). Binding buffer was composed of 25 mM HEPES, 5 mM MgCl2, 1 mM CaCl2, 0.5% protease-free bovine serum albumin, pH 7.4. After 90 minutes incubation at 25° C., membranes were harvested on GF/B filters -presoaked in 0.5% polyethylenimene, followeded by washing with buffer containing 25 mM HEPES, 5 mM MgCl2, 1 mM CaCl2, […], pH 7.4. Filter bound radioactivity was determined by liquid scintillation counting. EC50 values (μM) and Ki values (μM) were calculated. […] EC50 values and Ki values were calculated using non-linear regression in Graphpad Prism. […]

Compound: CCCC(c1ccc(F)c(F)c1)n1c(-c2nnc(C)o2)c(COC)[nH]c1=S (stereo not shown) [Compound 10]
- melting point: 97.8 to 97.9 °C

Compound: CCC(c1ccc(Cl)c(Cl)c1)n1c(-c2ccnc(N3CCNCC3)n2)c[nH]c1=S (stereo not shown) [Compound 24]
- pIC50 [1]: 6.20

Compound: CCC(c1ccc(Cl)c(Cl)c1)n1c(-c2ccnc(C)n2)c[nH]c1=S (stereo not shown) [Compound 19]
- pIC50 [1]: 6.08

Compound: CCC(c1ccc(Cl)c(Cl)c1)n1c(-c2cc[nH]n2)c[nH]c1=S (stereo not shown) [Compound 11]
- pIC50 [1]: 6.14

Compound: CCC(c1ccc(Cl)c(Cl)c1)n1c(-c2nnc(C)o2)c[nH]c1=S (stereo not shown) [Compound 14]
- pIC50 [1]: 6.38

Compound: CCC(c1ccc(Cl)c(Cl)c1)n1c(-c2ncn[nH]2)c[nH]c1=S (stereo not shown) [Compound 12]
- pIC50 [1]: 6.40

The remaining compounds from weak to strong by pIC50 [1], led by results:

- pIC50 [1]: 6.66
Compound: CCC(c1ccc(C(F)(F)F)c(F)c1)n1c(-c2nc(C)no2)c[nH]c1=S (stereo not shown) [Compound 26]

- pIC50 [1]: 6.70
Compound: CCC(c1ccc(Cl)c(Cl)c1)n1c(-c2nc(C)no2)cnc1S (stereo not shown) [Compound 5]

- pIC50 [1]: 7.38
Compound: CCC(c1ccc(Cl)c(Cl)c1)n1c(-c2ccnc(NC)n2)c[nH]c1=S (stereo not shown) [Compound 20]

- pKi [2]: 6.77
- pIC50 [1]: 7.45
Compound: CCC(c1ccc(Cl)c(Cl)c1)n1c(-c2ccnc(N)n2)c[nH]c1=S (stereo not shown) [Compound 1]

- pIC50 [1]: 7.46
Compound: CCC(c1ccc(Cl)c(Cl)c1)n1c(-c2ccnc(NCCO)n2)c[nH]c1=S (stereo not shown) [Compound 21]

- pIC50 [1]: 7.48
Compound: CCC(c1ccc(Cl)c(Cl)c1)n1c(-c2nnc(N)o2)cnc1S (stereo not shown) [Compound 9]
